Assay results from US5153175A, “Method of inducing sleep with GHRH complementary peptide compositions” (University of Tennesee Research Corporation, priority 1989, dated 1992).
Ends that are not written are not given here.

Columns and labels:
rabbits = experiment: Biological assay for sleep-promoting activity in rabbits after intracerebroventricular infusion (EEG, body movement, temperature); type: in vivo; conditions: rabbit; for time spent in SWS / time spent in rapid-eye-movement sleep: after administration, vs control
Procedure: Biological assays for sleep-promoting activity were performed on rabbits provided with chronically implanted ventricular guide tubes and four epidural screw electrodes for EEG. The animals were allowed at least one week to recover from surgery prior to their use for assays. Samples for testing were taken up in sterile artificial cerebrospinal fluid and a total of […] solution was infused intraventricularly (ICV) at the rate of 25 ul/min through a No. 26 hypodermic needle inserted through a guide tube. Following the infusion and removal of the infusion probe the animals were left undisturbed for 6-8 hours while EEG and bodily movements were recorded.
Slow wave sleep (SWS) was scored in two ways: (i) by conventional subjective scoring of the duration of SWS from polygraph records and (ii) by digital print-out of integrated mean rectified cortical slow waves (1/2-4 Hz). thus obtaining a measure of the amplitude was well as duration of delta wave EEG activity. Control animals were also assayed at the same time.
Operation and experimental procedure. Adult male New Zealand White Pasteurella-free rabbits, weighing 3-4 kg, were purchased from Myrtle's Rabbitry (Thompson Station, Tenn.). Under ketamine-xylazine (3.5-5.0 mg/kg iv) anesthesia, animals were provided with chronically implanted EEG electrodes, a glass-bead thermistor, and a cerebral ventricular guide tube (Krueger, J.M et al., Am. J. Physiol. 251 (Regulatory Integrative Comp. Physiol. 20): R591-R597, 1986; and Walter J.D. et al., Am. J. Physiol., 250 (Regulatory Integrative Comp. Physiol. 19): R96-R103, 1986). Briefly, stainless steal screws were implanted over the frontal parietal, and occipital cortex; and a small (1 mm diam) 50-k.OMEGA. thermistor (Fenwall Electronics) was placed 3 mm into the parietal cortex. Wires from Amphenol plugs (no. 223-1509) were soldered to the screws for EEG recordings and to the thermistors for brain temperature (Tbr) recordings. The ventricular guide tube was implanted 4 mm lateral to the bregma; during the implantation procedure, pressure at the tip of the infusion needle was monitored and used as an aid to locate the ventricle (See, e.g., Krueger, J.M et al., Am. J. Physiol., 246 (Regulatory Integrative Comp. Physiol. 15): R994-R999, 1984). Dental acrylic (DuzAll) was then used to insulate the leads and to secure the guide tube and EEG/thermistor plugs to the skull. A topical antibiotic (Bacitracin, Lilly) was applied to the incision, and 150,000 U of Duracillin (Lilly) were administered intramuscularly. At least 1 week was allowed for recovery.
Animals were housed in rooms on a 12:12-h light-dark cycle (0600-1800 h light) maintained at 21 ±2° C. The day before an experiment animals were brought to experimental chambers (Hotpack model 352600) for an overnight acclimation period. Each experimental chamber was also kept at 21 ±2° C. on a 12:12-h light-dark cycle. Food and water were available ad libitum at all times. At the top of the recording chamber, BRS/LVE electrical contact swivel was fixed; this allowed the rabbits free movement during recording periods. From the other end of the swivel a cable led to a Grass polygraph model 7D. Before each recording period the rabbits were connected to the recording cable for a 1-h habituation period, but data were not collected during this time.
Rabbits were then briefly taken out of the experimental cages and given the 3'-5' or 5'-3' CP (the "test substance"). [When animals received intracerebroventricular (ICV) injections, appropriate amounts of test substances (0.1-10.0 ul) were diluted to 50 ul with artificial CSF [3 mM KCL, 1.15 mM CaCl2 and 0.96 mM MgCl2 in pyrogen-free saline (PFS), […] NaCl (Abbott)]; these solutions were slowly infused over 2 min. […]

[1] = amino acids added to carboxyl terminal of N-acetyl muramyl-L-alanyl-D-isoglutamine; cited from earlier work
growth hormone release = conditions: relative potency of C-terminal deleted hGHRH fragments; cited from earlier work
lactating holstein cows = conditions: cited from earlier work
rat pituitary gland = conditions: cited from earlier work

In the case of “H-DPVNIRAFDDVL-NH2 [3'-5' CP, H-Asp-Pro-Val-Asn-Ile-Arg-Ala-Phe-Asp-Asp-Val-Leu-NH2]”, the “behavior (arousable; eat, drink and groom)” value (rabbits; ICV) is reported as “behavior was normal”, the “capacity to enhance sleep” value (rabbits; ICV) is reported as “have the capacity to enhance sleep” and the “character of the excess sleep (cycling through states of vigilance)” value (rabbits; ICV) is reported as “appeared normal”. For the same substance, the “temperatures of the animals” value (rabbits; ICV) was “remained normal”, the “time spent in SWS” value (rabbits; ICV) was “significantly more time” and the “time spent in rapid-eye-movement sleep” value (rabbits; ICV) was “significantly more time”.
In the case of “H-VEPGSLFLVPLPLLPVHDFVQQFAGI-NH2 [5'-3' CP]”, the “capacity to enhance sleep” value (rabbits; ICV) is reported as “have the capacity to enhance sleep”, the “time spent in SWS” value (rabbits; ICV) is reported as “significantly more time” and the “time spent in rapid-eye-movement sleep” value (rabbits; ICV) is reported as “significantly more time”. For the same substance, the “behavior (arousable; eat, drink and groom)” value (rabbits; in vivo) was “behavior was normal”, the “character of the excess sleep (cycling through states of vigilance)” value (rabbits; in vivo) was “appeared normal” and the “temperatures of the animals” value (rabbits; in vivo) was “remained normal”.
In the case of “N-acetyl-muramyl-L-alanyl-D-isoglutamyl-L-diaminopimelyl alanine”, the somnogenic activity [1] is listed as “somnogenic activity is retained”.
For “hGHRH (1-19): C-terminal deleted GHRH fragment (YADAIFTNSYRKVLGQLSA; Somatoliberin; UniProt P01286 32-50, looked up, fragment)”, the “relative GH-releasing potency” value (growth hormone release) is given as “No activity”.
In the case of “hGHRH (1-24): C-terminal deleted GHRH fragment (YADAIFTNSYRKVLGQLSARKLLQ; Somatoliberin; UniProt P01286 32-55, looked up, fragment)”, the “relative GH-releasing potency” value (growth hormone release) is listed as 0.02%.
For “hGHRH (1-27): C-terminal deleted GHRH fragment (YADAIFTNSYRKVLGQLSARKLLQDIM; Somatoliberin; UniProt P01286 32-58, looked up, fragment)”, the “relative GH-releasing potency” value (growth hormone release) is given as 12%.
In the case of “human GHRH: Growth Hormone Releasing Hormone, hypothalamic peptide which positively regulates the synthesis and secretion of growth hormone (YADAIFTNSYRKVLGQLSARKLLQDIMSRQQGESNQERGARARL; ends and bridges not checked; UniProt P01286 32-75, looked up)”, the “feed to milk conversion” value (lactating holstein cows) is listed as “apparent increase”, the “secretion of growth hormone” value (lactating holstein cows) is listed as “increases the secretion of growth hormone consistently” and the GH-stimulating effect (rat pituitary gland) is listed as “a GH-stimulating effect on the rat pituitary gland”.
